The values that follow come from US11352352B2, “Aminopyrimidine compound, preparation method therefor and use thereof” (BEIJING ADAMADLE BIOTECHNOLOGY LIMITED LIABILITY COMPANY, priority 2017, dated 2022).

In data set [1] the target is T1, P-gp (Homo sapiens, UniProt P08183).
T1 construct: expressed in transfected cells; host or cells: MDCKII-MDR1 (MDCKII canine kidney cells expressing MDR1)
Nature of the data set: P-gp substrate evaluation experiment (MDCKII-MDR1 Transwell drug penetration test). It counts as in vitro ADME. The settings on record: dog, MDCK-MDR1, pH 7.4; read-out: ER (Efflux Ratio). The procedure: P-gp Substrate Evaluation Experiment
Cell Culture • 1) High glucose DMEM medium containing L-glutamine was used and 10% fetal bovine serum, 0.1 mg/mL streptomycin and 0.6 mg/mL penicillin were added. • 2) MDCKII-MDR1 was cultured in a T-75 cell culture bottle. The incubator was set at the condition of 37° C., 5% CO2 and 95% relative humidity. Cells could be inoculated in Transwell when the cell confluence reached 70-90%. • 3) Before cell plant, 50 μL cell culture medium was added to each well in the upper chamber of the Transwell, and […] cell culture medium was added to the lower chamber of the Transwell.
Inoculation of MDCKII-MDR1 Cells • 1) Cell suspension was added to the upper chamber of the 96-well Transwell plate with […] each well, and the final inoculation density was 5.45×10^5 cells/cm^2. • 2) The medium was changed 48 hours after inoculation, the culture was carried out for 4-7 days, and the medium was changed every other day.
Evaluation of Cell Monolayer Integrity • 1) After 4-7 days of culture, MDCKII-MDR1 and MDKII should merge and differentiate completely. At this time, they could be applied to penetration test. • 2) The resistance of cell monolayer was measured by a resistance meter (Millipore, USA) and the resistance of each well was recorded. • 3) After finishing the detection, the Transwell plate was put back into the incubator. • 4) Resistance value was calculated: Resistance measured (ohms)×layer area (cm^2)=TEER value (ohm·cm^2)
If TEER value was less than 42 ohms·cm^2, the well can not be used for penetration testing.
Drug Penetration Test • 1) The MDCKII-MDR1 Transwell plate was taken out from the incubator. The cell monolayer was rinsed with HBSS buffer (25 mM HEPES, pH 7.4) twice and incubated for 30 minutes at 37° C. • 2) The transport rate of compounds from the top to the bottom was determined. […] 70 μL supernatant was drawn, diluted with equal volume of water and then subjected to LC-MS/MS analysis. All samples were prepared in three parallel ways. • 6) The cell monolayer integrity after 2-hour incubation was evaluated by leakage of fluorescent yellow, HBSS (25 mM HEPES, pH 7.4) was used to dilute the stock solution of fluorescent yellow till the final concentration was 100 μM. 100 μL fluorescent yellow solution was added to each well in the upper chamber of the Transwell plate and 300 μL HBSS (25 mM HEPES, pH 7.4) was added to each well in the lower chamber of the Transwell plate. After incubation at 37° C. for 30 minutes, 80 μL solution was drawn respectively from each well in the upper and lower chamber to a new 96-well plate. The fluorescence was determined at 485 nm as excitation wavelength and 530 nm as emission wavelength by using a microplate reader.
Data calculation was carried out through Excel, the apparent permeability index (Papp, cm/s) of compounds was calculated through the formula shown as follow: […]
wherein, the membrane area in the formula is the membrane area of Transwell-96 plate (0.143 cm^2); the unit of incubation time is second (s).
Efflux ratio was calculated through the formula shown as follow: […]

Data set [2] relates to A-431. Put plainly: Cell proliferation inhibition experiment, CellTiter-Glo (CTG) method. It counts as cell-based. The conditions noted are these: Homo sapiens, A-431, 72 h, A-431 cells, 3 days. The method, boiled down: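 For each line, compound is added at nine threefold-spaced concentrations, highest 30 μM (A-431) or 1.111 μM (NCI-H1975, PC-9), and cells grow 3 days at 37 °C. CellTiter-Glo luminescence gives survival relative to solvent control, fitted to yield IC50.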
(In general: ATP-based viability assays read luminescence as a measure of living cells.)

Data set [3] has as its system PC-9. Described as above. Format: cell-based. The settings on record: Homo sapiens, PC-9, 72 h, PC-9 cells, 3 days. Summed up: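 Cells in log-phase growth (viability above 90% by trypan blue) were seeded at 90 μL per well in black-walled, clear-bottom 96-well plates and incubated overnight at 37° C., 5% CO2. A T0 plate was read the next day. Test compounds were added at nine concentrations in triplicate with a solvent control. Viability was measured by CellTiter-Glo luminescence on EnVision, and IC50 came from non-linear S-curve fitting in GraphPad Prism 5.0.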

Data set [4] relates to NCI-H1975. The description is as above. The conditions noted are these: for pIC50: Homo sapiens, NCI-H1975, 72 h, NCI-H1975 cells, CTG, 3 days; for A-431/NCI-H1975 Selectivity: ratio of A-431 IC50 to NCI-H1975 IC50. Format: cell-based. Summed up:
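NCI-H1975 cells with viability above 90% by trypan blue were seeded at 90 μL per well in black 96-well plates and incubated overnight at 37° C., 5% CO2. Compounds were added at nine concentrations in triplicate, and viability was measured with CellTiter-Glo luminescence on EnVision. IC50 came from non-linear S-curve fitting in GraphPad Prism 5.0.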

Each structure is given as a SMILES string. pIC50: −log10 of the molar value.

T1 sequence (P08183 whole entry): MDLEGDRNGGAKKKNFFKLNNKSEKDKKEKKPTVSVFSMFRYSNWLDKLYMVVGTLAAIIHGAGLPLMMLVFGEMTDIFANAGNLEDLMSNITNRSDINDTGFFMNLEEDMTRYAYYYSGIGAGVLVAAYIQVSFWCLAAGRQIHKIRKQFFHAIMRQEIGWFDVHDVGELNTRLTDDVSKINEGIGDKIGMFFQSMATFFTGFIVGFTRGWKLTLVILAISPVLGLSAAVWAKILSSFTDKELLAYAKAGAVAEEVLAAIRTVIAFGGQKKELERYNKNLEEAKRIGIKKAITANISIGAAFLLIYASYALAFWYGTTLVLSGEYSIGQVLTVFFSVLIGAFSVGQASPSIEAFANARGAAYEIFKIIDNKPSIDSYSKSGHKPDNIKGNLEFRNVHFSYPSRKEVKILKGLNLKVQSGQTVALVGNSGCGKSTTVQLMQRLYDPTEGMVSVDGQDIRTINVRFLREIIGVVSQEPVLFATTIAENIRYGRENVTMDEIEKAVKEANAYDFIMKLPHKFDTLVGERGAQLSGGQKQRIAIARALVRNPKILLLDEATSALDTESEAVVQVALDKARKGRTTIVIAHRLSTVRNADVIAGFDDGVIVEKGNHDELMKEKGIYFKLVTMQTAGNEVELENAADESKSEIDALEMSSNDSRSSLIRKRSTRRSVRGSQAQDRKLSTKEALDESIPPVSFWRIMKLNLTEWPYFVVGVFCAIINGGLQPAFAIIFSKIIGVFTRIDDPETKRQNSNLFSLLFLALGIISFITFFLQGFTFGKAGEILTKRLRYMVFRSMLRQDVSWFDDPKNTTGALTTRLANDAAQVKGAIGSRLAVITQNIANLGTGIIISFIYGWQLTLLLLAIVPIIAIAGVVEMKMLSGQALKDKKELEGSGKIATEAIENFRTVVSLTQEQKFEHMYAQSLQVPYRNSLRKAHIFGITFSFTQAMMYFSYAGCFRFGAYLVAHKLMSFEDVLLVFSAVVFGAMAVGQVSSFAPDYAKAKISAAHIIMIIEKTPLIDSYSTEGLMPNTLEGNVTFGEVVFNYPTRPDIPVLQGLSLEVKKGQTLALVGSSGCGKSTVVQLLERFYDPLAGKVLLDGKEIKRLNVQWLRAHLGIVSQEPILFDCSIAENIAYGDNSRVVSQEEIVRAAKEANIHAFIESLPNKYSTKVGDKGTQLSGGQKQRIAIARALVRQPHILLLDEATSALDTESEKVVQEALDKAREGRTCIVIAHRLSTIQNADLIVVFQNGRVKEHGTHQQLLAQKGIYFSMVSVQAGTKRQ

As usually defined, the pIC50 is the IC50 on a negative log10 scale, so that one unit is a factor of ten. Read a low pIC50 as a large IC50. Take `COc1cc(N(C)CCN(C)C)c(NC(=O)/C=C/CN(C)C)cc1Nc1cc(-c2ccc3c(cnn3C)c2)ncn1` [compound 131]: the efflux ratio at 2 h in data set [1] was 51.7. Further, the pIC50 in data set [2] is 6.24; in data set [3], 7.83; in data set [4], 8.02. The “A-431/NCI-H1975 Selectivity” value in data set [4] is recorded as 60.2.

Turning to `C=CC(=O)Nc1cc(Nc2cc(-c3ccc4c(cnn4C)c3)ncn2)c(OC)cc1N(C)CCN(C)C(C)C` [compound 138], the efflux ratio at 2 h in data set [1] amounted to 2.17. Besides, the pIC50 was 6.02 in data set [2], 7.91 in data set [3] and 7.77 in data set [4]. The “A-431/NCI-H1975 Selectivity” value in data set [4] amounted to 56.3.

`C=CC(=O)Nc1cc(Nc2cc(-c3ccc4c(cnn4C)c3)ncn2)c(OC)cc1N1CCC(N2CCCCC2)CC1` [compound 144]: the efflux ratio at 2 h in data set [1] came out at 11.6. The pIC50 in data set [2] is 6.24; in data set [3] it was 7.79; in data set [4], 8.17. For the same compound, the “A-431/NCI-H1975 Selectivity” value in data set [4] was found to be 84.1.

`C=CC(=O)Nc1cc(Nc2cc(-c3ccc4cnn(C)c4c3)ncn2)c(OC)cc1N1CCC(N2C[C@@H](C)O[C@@H](C)C2)CC1` [compound 155]: the efflux ratio at 2 h in data set [1] worked out at 0.93. Besides, the pIC50 in data set [2] is 6.06; in data set [3] it was 8.22; in data set [4], 7.87. Besides, the “A-431/NCI-H1975 Selectivity” value in data set [4] is listed as 64.2.

For `C=CC(=O)Nc1cc(Nc2cc(-c3ccc4cnn(C)c4c3)ncn2)c(OC)cc1N1CCC(N2CCCC2)CC1` [compound 158], the efflux ratio at 2 h in data set [1] amounted to 15.3. The values for the pIC50 in data set [2], in data set [3] and in data set [4] were 6.17, 8.31 and 8.03, respectively. In data set [4], the “A-431/NCI-H1975 Selectivity” value is 72.4.

On to `C=CC(=O)Nc1cc(Nc2cc(-c3ccc4cnn(C)c4c3)ncn2)c(OC(F)F)cc1N1CCC(N2CCCC2)CC1` [compound 164], for which the efflux ratio at 2 h in data set [1] came out at 34.4. The pIC50 in data set [2] is 6.23; in data set [3], 7.63; in data set [4] it was 7.90. In addition, the “A-431/NCI-H1975 Selectivity” value in data set [4] came to 46.9.

On to `C=CC(=O)Nc1cc(Nc2cc(-c3ccc4c(cnn4C)c3)ncn2)c(OC(F)F)cc1N1CCC(N(CC)CC)CC1` [compound 168], for which the efflux ratio at 2 h in data set [1] came out at 23.1. In addition, the pIC50 in data set [2] was 6.23; in data set [3] it was 7.67; in data set [4], 8.17. Further, the “A-431/NCI-H1975 Selectivity” value in data set [4] turned out to be 85.9.

`C=CC(=O)Nc1c(N(C)CCN(C)C)cc(OC)c(Nc2cc(-c3ccc4cnn(C)c4c3)ncn2)c1F` [compound 172]: the efflux ratio at 2 h in data set [1] was determined as 43.9. For the same compound, the pIC50 in data set [2] is 6.02; in data set [3], 7.79; in data set [4] it was 7.73. For the same compound, in data set [4], the “A-431/NCI-H1975 Selectivity” value is reported as 51.3.

Consider `C=CC(=O)Nc1cc(Nc2cc(-c3ccc4cnn(C)c4c3)ncn2)c(OC)cc1N1CCC(N(C)C)CC1` [compound 173], for which the efflux ratio at 2 h in data set [1] was found to be 32.2. The pIC50 in data set [2] was 5.98; in data set [3] it was 8.14; in data set [4], 7.64. In data set [4], the “A-431/NCI-H1975 Selectivity” value came to 46.5.

`C=CC(=O)Nc1cc(Nc2cc(-c3ccc4cnn(C)c4c3)ncn2)c(OC(F)F)cc1N(C)CCN(C)C` [compound 176]: the efflux ratio at 2 h in data set [1] stood at 3.98. For the same compound, the pIC50 in data set [2] was 5.97; in data set [3] it was 8.32; in data set [4], 7.67. For the same compound, in data set [4], the “A-431/NCI-H1975 Selectivity” value came out at 50.9.

As to `C=CC(=O)Nc1cc(Nc2cc(-c3ccc4cnn(C)c4c3)ncn2)c(OC)cc1N1CCC(N2CCCCC2)CC1` [compound 179], the efflux ratio at 2 h in data set [1] was determined as 17.1. For the same compound, the pIC50 in data set [2] was 6.01; in data set [3], 8.54; in data set [4], 7.79. Besides, the “A-431/NCI-H1975 Selectivity” value in data set [4] came to 60.7.

For the compound `C=CC(=O)Nc1cc(Nc2cc(-c3ccc4cnn(C)c4c3)ncn2)c(OC)cc1N(C)CCN(C)CC` [compound 180], the efflux ratio at 2 h in data set [1] came to 3.07. In addition, the pIC50 in data set [2] is 6.05; in data set [3], 8.42; in data set [4], 7.60. In addition, the “A-431/NCI-H1975 Selectivity” value in data set [4] is on record as 35.6.

As to `C=CC(=O)Nc1cc(Nc2cc(-c3ccc4cnn(C)c4c3)ncn2)c(OC)cc1N1CCC(N2CCC(OC)C2)CC1` (stereo not drawn) [compound 203], the efflux ratio at 2 h in data set [1] came to 6.51. Besides, the values for the pIC50 in data set [2], in data set [3] and in data set [4] were 6.01, 8.14 and 8.09, respectively. Besides, the “A-431/NCI-H1975 Selectivity” value in data set [4] stood at 121.2.

With `C=CC(=O)Nc1cc(Nc2cc(-c3ccc4c(cnn4C)c3)ncn2)c(OC)cc1N1CCC(N2CC(OC)C2)CC1` [compound 206], in data set [1], the efflux ratio at 2 h was 5.87. Besides, the pIC50 in data set [2] was 6.11; in data set [3], 7.92; in data set [4], 8.09. The “A-431/NCI-H1975 Selectivity” value in data set [4] is 95.4.

Turning to `C=CC(=O)Nc1cc(Nc2cc(-c3ccc4c(cnn4C)c3)ncn2)c(OC)cc1N1CCC(N2CCN(C3COC3)CC2)CC1` [compound 210], in data set [1], the efflux ratio at 2 h was 11.4. The results for the pIC50 in data set [2], in data set [3] and in data set [4] were 6.01, 7.93 and 7.98, respectively. Besides, the “A-431/NCI-H1975 Selectivity” value in data set [4] came to 94.5.

On to `C=CC(=O)Nc1cc(Nc2cc(-c3ccc4ncsc4c3)ncn2)c(OC)cc1N1CCN(CCN(C)C)CC1` [compound 250], for which the efflux ratio at 2 h in data set [1] worked out at 15.8. For the same compound, the pIC50 in data set [2] was 5.99; in data set [3], 7.90; in data set [4] it was 7.90. Moreover, in data set [4], the “A-431/NCI-H1975 Selectivity” value was found to be 81.9.

With `C=CC(=O)Nc1cc(Nc2cc(-c3ccc4ncsc4c3)ncn2)c(OC)cc1NCCN(C)C` [compound 251], the efflux ratio at 2 h in data set [1] worked out at 42.6. Moreover, the figures for the pIC50 in data set [2], in data set [3] and in data set [4] were 5.96, 8.15 and 7.90, respectively. In data set [4], the “A-431/NCI-H1975 Selectivity” value came to 88.2.

As for `C=CC(=O)Nc1cc(Nc2cc(-c3ccc4c(cnn4C)c3)ncn2)c(OC)cc1N1CCN(CCO)CC1` [compound 267], the efflux ratio at 2 h in data set [1] was determined as 14.6. Further, the pIC50 in data set [2] is 5.98; in data set [3], 7.53; in data set [4] it was 7.79. The “A-431/NCI-H1975 Selectivity” value in data set [4] was found to be 64.4.
